The target in experiment [1] is T1, Tyrosine-protein phosphatase non-receptor type 1 (Homo sapiens, UniProt P18031).
T1 sequence (P18031 whole entry): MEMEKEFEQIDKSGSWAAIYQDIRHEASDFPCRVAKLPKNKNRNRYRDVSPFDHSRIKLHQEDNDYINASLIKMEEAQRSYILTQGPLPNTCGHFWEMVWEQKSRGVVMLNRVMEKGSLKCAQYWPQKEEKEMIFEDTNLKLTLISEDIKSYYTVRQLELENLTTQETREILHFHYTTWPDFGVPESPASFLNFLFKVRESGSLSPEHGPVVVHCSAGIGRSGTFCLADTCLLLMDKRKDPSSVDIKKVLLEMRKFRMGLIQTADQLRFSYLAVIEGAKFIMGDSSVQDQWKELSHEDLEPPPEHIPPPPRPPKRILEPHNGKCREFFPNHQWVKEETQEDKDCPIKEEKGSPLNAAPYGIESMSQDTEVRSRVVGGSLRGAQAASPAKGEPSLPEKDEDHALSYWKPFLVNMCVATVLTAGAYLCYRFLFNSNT
As to the kind of experiment: (§1) Inhibition of PTP1B.

In experiment [2] the target is T2, Receptor-type tyrosine-protein phosphatase C (Homo sapiens, UniProt P08575).
T2 sequence (P08575 whole entry): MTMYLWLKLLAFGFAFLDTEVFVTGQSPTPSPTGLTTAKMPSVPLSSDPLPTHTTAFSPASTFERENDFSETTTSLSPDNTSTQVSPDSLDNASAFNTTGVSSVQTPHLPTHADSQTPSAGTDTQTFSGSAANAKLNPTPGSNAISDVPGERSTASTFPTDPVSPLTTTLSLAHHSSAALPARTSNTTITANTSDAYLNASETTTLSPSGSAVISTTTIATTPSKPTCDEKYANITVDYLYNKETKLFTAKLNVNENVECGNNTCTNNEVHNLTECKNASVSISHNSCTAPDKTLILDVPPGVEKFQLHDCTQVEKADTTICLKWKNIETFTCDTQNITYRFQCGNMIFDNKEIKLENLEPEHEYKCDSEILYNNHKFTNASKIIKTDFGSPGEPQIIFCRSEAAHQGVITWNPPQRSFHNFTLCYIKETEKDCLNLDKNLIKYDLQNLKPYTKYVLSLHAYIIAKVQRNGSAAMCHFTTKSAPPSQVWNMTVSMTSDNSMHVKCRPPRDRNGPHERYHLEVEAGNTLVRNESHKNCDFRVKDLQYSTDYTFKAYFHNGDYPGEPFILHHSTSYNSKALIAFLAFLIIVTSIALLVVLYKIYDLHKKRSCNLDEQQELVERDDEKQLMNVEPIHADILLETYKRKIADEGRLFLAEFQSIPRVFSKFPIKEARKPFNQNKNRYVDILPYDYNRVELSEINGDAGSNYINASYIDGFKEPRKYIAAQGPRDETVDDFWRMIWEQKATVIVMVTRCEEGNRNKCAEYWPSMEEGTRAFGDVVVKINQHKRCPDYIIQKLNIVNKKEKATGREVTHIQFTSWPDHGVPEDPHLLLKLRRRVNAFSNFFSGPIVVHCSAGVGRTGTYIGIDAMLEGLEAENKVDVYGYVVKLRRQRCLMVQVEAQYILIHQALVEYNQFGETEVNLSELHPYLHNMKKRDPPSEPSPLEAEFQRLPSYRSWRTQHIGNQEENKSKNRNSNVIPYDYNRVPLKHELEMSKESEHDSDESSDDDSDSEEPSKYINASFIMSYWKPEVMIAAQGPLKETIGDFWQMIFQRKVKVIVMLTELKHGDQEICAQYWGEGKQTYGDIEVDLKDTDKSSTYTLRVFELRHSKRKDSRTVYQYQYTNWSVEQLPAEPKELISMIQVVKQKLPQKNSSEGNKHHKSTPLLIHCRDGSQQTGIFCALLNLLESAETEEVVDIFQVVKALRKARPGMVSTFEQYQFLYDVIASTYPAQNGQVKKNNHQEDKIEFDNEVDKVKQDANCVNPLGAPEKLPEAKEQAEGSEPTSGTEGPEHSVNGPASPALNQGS
Put plainly: Inhibition of CD45.

For experiment [3], the target named is Receptor-type tyrosine-protein phosphatase F (Homo sapiens, UniProt P10586). As to the kind of experiment: Inhibition of LAR.
Experiment [4] concerns the target T3, Tyrosine-protein phosphatase non-receptor type 1 (Homo sapiens) (UniProt P18031).
T3 sequence (whole entry): T1 sequence (P18031 whole entry)
The description is as §1.

Activity calls are given as the source filed them. The calls are words filed in the database; no cut-off is given here.

Chain of Receptor-type tyrosine-protein phosphatase F (P10586 whole entry): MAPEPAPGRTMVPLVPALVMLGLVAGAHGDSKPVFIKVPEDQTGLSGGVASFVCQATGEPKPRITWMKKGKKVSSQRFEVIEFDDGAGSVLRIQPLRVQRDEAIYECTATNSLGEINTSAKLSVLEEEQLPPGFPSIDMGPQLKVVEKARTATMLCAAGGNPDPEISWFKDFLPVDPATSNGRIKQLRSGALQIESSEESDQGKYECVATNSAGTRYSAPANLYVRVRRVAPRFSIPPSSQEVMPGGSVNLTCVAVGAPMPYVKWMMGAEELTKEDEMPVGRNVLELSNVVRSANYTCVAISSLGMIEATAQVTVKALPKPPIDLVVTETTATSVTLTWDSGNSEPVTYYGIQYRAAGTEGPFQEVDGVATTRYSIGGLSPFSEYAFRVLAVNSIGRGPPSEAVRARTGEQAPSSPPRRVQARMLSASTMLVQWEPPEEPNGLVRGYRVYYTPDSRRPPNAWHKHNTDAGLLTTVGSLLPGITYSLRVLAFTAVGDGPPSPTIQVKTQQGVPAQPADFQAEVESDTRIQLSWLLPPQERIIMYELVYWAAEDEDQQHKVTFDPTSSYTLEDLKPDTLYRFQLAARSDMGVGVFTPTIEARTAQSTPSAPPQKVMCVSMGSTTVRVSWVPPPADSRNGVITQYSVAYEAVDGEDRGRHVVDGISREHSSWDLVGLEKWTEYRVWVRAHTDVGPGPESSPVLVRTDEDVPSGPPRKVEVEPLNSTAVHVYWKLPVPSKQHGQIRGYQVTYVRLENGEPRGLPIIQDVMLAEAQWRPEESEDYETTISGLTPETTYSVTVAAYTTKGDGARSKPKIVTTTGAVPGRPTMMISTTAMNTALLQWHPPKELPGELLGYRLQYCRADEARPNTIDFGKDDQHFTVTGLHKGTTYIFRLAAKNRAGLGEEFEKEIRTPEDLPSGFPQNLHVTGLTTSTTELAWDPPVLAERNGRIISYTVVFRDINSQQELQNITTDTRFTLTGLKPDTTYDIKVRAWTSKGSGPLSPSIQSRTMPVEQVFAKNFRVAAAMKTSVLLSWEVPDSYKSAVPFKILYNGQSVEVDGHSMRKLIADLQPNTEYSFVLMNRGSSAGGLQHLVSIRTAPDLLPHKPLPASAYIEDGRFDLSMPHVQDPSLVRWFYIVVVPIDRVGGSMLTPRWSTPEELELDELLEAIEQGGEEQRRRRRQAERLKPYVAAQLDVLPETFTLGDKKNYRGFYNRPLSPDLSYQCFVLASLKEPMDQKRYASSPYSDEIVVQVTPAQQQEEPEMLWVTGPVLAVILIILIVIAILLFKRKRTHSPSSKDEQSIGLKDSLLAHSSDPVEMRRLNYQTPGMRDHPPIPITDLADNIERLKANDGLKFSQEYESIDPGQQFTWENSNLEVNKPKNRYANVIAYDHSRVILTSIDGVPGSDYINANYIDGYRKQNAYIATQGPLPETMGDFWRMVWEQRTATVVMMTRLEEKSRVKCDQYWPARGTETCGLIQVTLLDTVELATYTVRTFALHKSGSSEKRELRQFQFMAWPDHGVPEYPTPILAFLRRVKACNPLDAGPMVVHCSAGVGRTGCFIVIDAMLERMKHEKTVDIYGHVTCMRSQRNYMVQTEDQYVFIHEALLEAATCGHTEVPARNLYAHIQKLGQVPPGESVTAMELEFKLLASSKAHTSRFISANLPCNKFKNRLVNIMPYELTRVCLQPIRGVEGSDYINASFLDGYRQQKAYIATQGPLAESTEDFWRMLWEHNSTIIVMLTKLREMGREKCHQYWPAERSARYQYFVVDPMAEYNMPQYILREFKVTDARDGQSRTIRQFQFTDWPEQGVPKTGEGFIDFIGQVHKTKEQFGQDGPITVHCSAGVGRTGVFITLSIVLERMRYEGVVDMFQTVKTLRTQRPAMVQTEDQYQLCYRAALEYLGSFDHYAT

On to `CC(=O)Nc1ccc(-c2sc(C(=O)O)c(OCC(=O)O)c2Br)cc1`, for which the Ki in experiment [1] stood at 0.5 µM. Turning to `CS(=O)(=O)Nc1ccc(-c2sc(C(=O)O)c(OCC(=O)O)c2Br)cc1`, affinity in experiment [1] was put at a Ki of 0.74 µM. `O=C(O)COc1c(-c2ccccc2)csc1C(=O)O` showed a Ki in experiment [1] of over 1000 µM.

Take `O=C(O)COc1c(C(=O)O)sc(-c2ccc3cc[nH]c3c2)c1Br`: in experiment [1], affinity was put at a Ki of 0.57 µM.

`CC1(C)CC(Nc2ccc(-c3sc(C(=O)O)c(OCC(=O)O)c3Br)cc2)CC(C)(C)C1` yielded an inhibition constant (Ki) in experiment [1] of 0.25 µM.

`COc1ccc(-c2sc(C(=O)O)c(OCC(=O)O)c2Br)cc1` registered a Ki in experiment [1] of 3 µM. In experiment [1], `O=C(O)COc1c(C(=O)O)sc(-c2cccc(O)c2)c1Br` returned a Ki of 1 µM. Still for that read-out and setting: then `O=C(O)COc1c(C(=O)O)sc(-c2ccc(NS(=O)(=O)c3ccc(C(F)(F)F)cc3)cc2)c1Br`, with 0.2 µM; and `O=C(O)COc1ccsc1C(=O)O`, with over 1000 µM.

In turn, `CN(c1ccc(-c2sc(C(=O)O)c(OCC(=O)O)c2Br)cc1)S(=O)(=O)c1ccc(C(F)(F)F)cc1` registered an inhibitory constant (Ki) in experiment [1] of 1.2 µM. Turning to `O=C(O)COc1c(C(=O)O)sc(-c2cccnc2)c1Br`, in experiment [1], affinity was put at a Ki of 4 µM. For the compound `O=C(O)COc1c(C(=O)O)sc(-c2ccc(NC(=O)c3cccnc3)cc2)c1Br`, the inhibition constant (Ki) stood at 55 µM in experiment [2] and 0.32 mM in experiment [3].

Regarding `O=C(O)COc1c(C(=O)O)sc(-c2ccc3ccoc3c2)c1Br`, the affinity in experiment [1], expressed as Ki, was 5 µM. For the compound `CC(C)NC(=O)Nc1ccc(-c2sc(C(=O)O)c(OCC(=O)O)c2Br)cc1`, the affinity in experiment [1] corresponds to a Ki of 0.36 µM. Turning to `O=C(O)COc1c(C(=O)O)sc(-c2ccsc2)c1Br`, in experiment [1], the inhibition constant (Ki) stood at 1.4 µM. For `CN(C)c1ccc(-c2sc(C(=O)O)c(OCC(=O)O)c2Br)cc1`, the Ki in experiment [2] was 64 µM; in experiment [3], over 1 mM. `O=C(O)COc1c(C(=O)O)sc(-c2ccccc2)c1-c1ccccc1`: in experiment [4], the outcome was inactive. For `Nc1ccc(-c2sc(C(=O)O)c(OCC(=O)O)c2Br)cc1`, the inhibition constant Ki in experiment [1] came out at 1.6 µM. With `O=C(O)COc1c(C(=O)O)sc(-c2ccc(NC(=O)CC(=O)O)cc2)c1Br`, the Ki in experiment [2] is 33 µM; in experiment [3], over 1 mM. The compound `O=C(O)COc1c(C(=O)O)sc(Br)c1Br` gave an inhibition constant Ki in experiment [1] of 18 µM. The compound `O=C(O)COc1c(C(=O)O)sc(-c2ccc(NC(=O)c3ccco3)cc2)c1Br` displayed a Ki in experiment [1] of 0.62 µM. For the compound `COC(=O)Nc1ccc(-c2sc(C(=O)O)c(OCC(=O)O)c2Br)cc1`, the affinity in experiment [1], expressed as Ki, was 1 µM. For the compound `O=C(O)COc1c(C(=O)O)sc(-c2ccc(C(=O)Nc3ccccc3)cc2)c1Br`, in experiment [1], the inhibition constant (Ki) worked out at 2.5 µM. With `O=C(O)COc1c(C(=O)O)sc(-c2ccc(NC(=O)c3ccccc3)cc2)c1Br`, in experiment [1], the inhibitory constant (Ki) stood at 0.6 µM. Same read-out and setting: as for `O=C(O)COc1c(C(=O)O)sc(-c2ccc3ccccc3c2)c1Br`, the figure is 3.3 µM. For the compound `Cc1csc(C(=O)O)c1OCC(=O)O`, the inhibitory constant (Ki) in experiment [1] was over 1000 µM. In the case of `O=C(O)COc1c(C(=O)O)sc(-c2ccccc2)c1Br`, the results for the inhibitory constant (Ki) in experiment [2] and in experiment [3] were 26 µM and over 1 mM, respectively.

Usually Ki stands for a measure of affinity in units of concentration, obtained from inhibition or displacement. High values mean lower affinity, low ones higher affinity.

Values taken from ChEMBL document CHEMBL1149477, “Monocyclic thiophenes as protein tyrosine phosphatase 1B inhibitors: capturing interactions with Asp48” (Bioorg Med Chem Lett, 2006).
